# How the values were obtained:
# [1] = tested on: A375 cells; experiment: Tumor cell line proliferation assay (CellTiter Glo), A375; type: cell-based; conditions: Homo sapiens, A-375, 96 h, read-out: A375 (V599E) Cell Proliferation IC50
# [2] = tested on: phospho-p90 RSK (RSK1 Thr359/Ser363) in A375 (Braf V600E) cells; experiment: Phospho-p90 RSK ELISA using A375 (Braf V600E) cells; type: cell-based; conditions: Homo sapiens, A-375, 2 hours compound treatment, read-out: Cellular Phospho-p90RSK IC50
SMILES,IC50 [1] [nM],IC50 [2] [nM]
CC(c1ccccc1)c1cc2cc3c(-c4ccncc4)n[nH]c3cc2[nH]c1=O (stereo not shown) [Example 326],≤ 250,≤ 250
Cc1cc(-c2n[nH]c3cc4c(cc23)CN([C@@H]2CN(C(C)C)C[C@H]2c2ccccc2)C(=O)N4)ccn1 (racemic) [Example 279],≤ 250,≤ 250
C[C@H](c1ccccc1)c1cc2cc3c(NC4CCOCC4)n[nH]c3cc2[nH]c1=O [Example 357],≤ 250,≤ 250
Cc1cc(-c2n[nH]c3cc4c(cc23)CN(CC2CCOCC2)C(=O)N4)ccn1 [Example 211],250 to 1000,≤ 250
CC(c1ccccc1)c1cc2cc3c(-c4ccnc(N5CCN(C)CC5)c4)n[nH]c3cc2[nH]c1=O (stereo not shown) [Example 318],≤ 250,≤ 250
Cc1cc(-c2n[nH]c3cc4c(cc23)CN([C@@H]2CCCN(Cc3cccc(Cl)c3)C2)C(=O)N4)ccn1 [Example 156],≤ 250,≤ 250
O=C1Nc2cc3[nH]nc(-c4ccc(N5CCOCC5)nc4)c3cc2CN1Cc1cccc(Cl)c1 [Example 231],250 to 1000,≤ 250
Cc1cc(-c2n[nH]c3cc4c(cc23)CN(C2CCCC2)C(=O)N4)cc(C)n1 [Example 239],≤ 250,≤ 250
Cn1cc(-c2n[nH]c3cc4c(cc23)CN([C@@H]2CCCN(Cc3ccccc3)C2)C(=O)N4)cn1 [Example 285],≤ 250,≤ 250
C=C(c1ccccc1)c1cc2cc3c(-c4ccnc(C)c4)n[nH]c3cc2[nH]c1=O [Example 269],≤ 250,≤ 250
Cc1cc(-c2n[nH]c3cc4c(cc23)CN([C@@H]2CCCN(Cc3cccc(F)c3)C2)C(=O)N4)ccn1 [Example 184],≤ 250,≤ 250
Cc1cc(-c2n[nH]c3cc4[nH]c(=O)c(C(CO)c5ccccc5)cc4cc23)ccn1 (stereo not shown) [Example 328],250 to 1000,≤ 250
Cc1cc(-c2n[nH]c3cc4c(cc23)CN([C@@H]2CCCN(Cc3cccc(F)c3F)C2)C(=O)N4)ccn1 [Example 185],≤ 250,≤ 250
Cc1cc(-c2n[nH]c3cc4c(cc23)CN([C@@H]2CCCN(Cc3cccs3)C2)C(=O)N4)ccn1 [Example 254],≤ 250,≤ 250
Cc1cc(-c2n[nH]c3cc4c(cc23)CN(CC2CCCCC2)C(=O)N4)ccn1 [Example 213],≤ 250,≤ 250
Cc1cc(-c2n[nH]c3cc4c(cc23)CN([C@@H]2CCCN(Cc3sccc3F)C2)C(=O)N4)ccn1 [Example 291],≤ 250,≤ 250
COc1cccc(F)c1CN1CC[C@@H](N2Cc3cc4c(-c5ccnc(C)c5)n[nH]c4cc3NC2=O)C1 [Example 162],≤ 250,≤ 250
Cc1cc(-c2n[nH]c3cc4c(cc23)CN(Cc2nc(C)c(C)s2)C(=O)N4)ccn1 [Example 228],250 to 1000,≤ 250
Cc1cc(-c2n[nH]c3cc4c(cc23)CN([C@@H]2CN(CC(F)(F)F)C[C@H]2c2ccccc2)C(=O)N4)cc(C)n1 [Example 242],250 to 1000,≤ 250
CC(c1ccccc1)c1cc2cc3c(NC4CCOCC4)n[nH]c3cc2[nH]c1=O (stereo not shown) [Example 338],≤ 250,≤ 250

SMILES,IC50 [1] [nM],IC50 [2] [nM]
COc1ccc(-c2n[nH]c3cc4c(cc23)CN(Cc2cc(F)cc(F)c2)C(=O)N4)cn1 [Example 92],250 to 1000,≤ 250
Cc1cc(-c2n[nH]c3cc4c(cc23)CN([C@@H]2CCN(C(C)C(F)(F)F)C2)C(=O)N4)ccn1 (stereo partly shown) [Example 267],≤ 250,≤ 250
Cc1ncc(-c2n[nH]c3cc4c(cc23)CN([C@@H]2CCCN(Cc3ccc(F)cc3F)C2)C(=O)N4)cn1 [Example 293],≤ 250,≤ 250
Cc1cc(-c2n[nH]c3cc4c(cc23)CN(Cc2ccc(F)c(Cl)c2)C(=O)N4)cc(C)n1 [Example 226],250 to 1000,≤ 250
Cc1cc(-c2n[nH]c3cc4c(cc23)CN([C@@H]2CCCN(C(C)C(F)(F)F)C2)C(=O)N4)ccn1 (stereo partly shown) [Example 216],250 to 1000,≤ 250
COc1ncc(-c2n[nH]c3cc4c(cc23)CN(C2CN(Cc3ccccc3)CC(F)(F)C2)C(=O)N4)cn1 (stereo not shown) [Example 320],250 to 1000,≤ 250
Cc1cc(-c2n[nH]c3cc4c(cc23)CN(Cc2cccs2)C(=O)N4)cc(C)n1 [Example 227],250 to 1000,≤ 250
Cc1cc(-c2n[nH]c3cc4c(cc23)CN(C2CCC(F)(F)CC2)C(=O)N4)ccn1 [Example 224],250 to 1000,≤ 250
Cc1cc(-c2n[nH]c3cc4c(cc23)CN([C@@H]2CCN(CC(F)(F)F)C2)C(=O)N4)cc(C)n1 [Example 237],≤ 250,≤ 250
Cc1cc(-c2n[nH]c3cc4c(cc23)CN([C@@H]2CN(C)C[C@H]2c2ccccc2F)C(=O)N4)cc(C)n1 (racemic) [Example 306],≤ 250,≤ 250
Cc1cc(-c2n[nH]c3cc4c(cc23)CN([C@@H]2CCCN(Cc3ccccc3Cl)C2)C(=O)N4)ccn1 [Example 158],≤ 250,≤ 250
Cc1ccc(-c2n[nH]c3cc4c(cc23)CN([C@@H]2CCCN(Cc3ccccc3)C2)C(=O)N4)cn1 [Example 275],≤ 250,≤ 250
Cc1cc(-c2n[nH]c3cc4c(cc23)CN([C@@H]2CN(C)C[C@H]2c2ccccc2)C(=O)N4)ccn1 (racemic) [Example 241],≤ 250,≤ 250
Cc1cc(-c2n[nH]c3cc4c(cc23)CN([C@@H]2CN(CC(F)(F)F)C[C@H]2c2cccs2)C(=O)N4)ccn1 (mixture of isomers) [Example 321],250 to 1000,≤ 250
Cc1cc(-c2n[nH]c3cc4c(cc23)CN([C@@H]2CN(CC#N)C[C@H]2c2ccccc2)C(=O)N4)ccn1 (mixture of isomers) [Example 366],> 1000,≤ 250
Cc1cc(-c2n[nH]c3cc4c(cc23)CN(CCNCc2ccccc2)C(=O)N4)ccn1 [Example 149],≤ 250,250 to 1000
CC(c1ccccc1)c1cc2cc3c(-c4ccnc(N5CCOCC5)c4)n[nH]c3cc2[nH]c1=O (stereo not shown) [Example 325],≤ 250,≤ 250
Cc1cc(-c2n[nH]c3cc4c(cc23)CN(C(C)c2nccs2)C(=O)N4)ccn1 (stereo not shown) [Example 234],250 to 1000,≤ 250
Cc1cc(-c2n[nH]c3cc4c(cc23)CN([C@@H]2CCCN(Cc3ccc(C)s3)C2)C(=O)N4)ccn1 [Example 245],≤ 250,≤ 250
Cc1cc(-c2n[nH]c3cc4c(cc23)CN([C@@H]2CCCN(C(C)c3ccccc3)C2)C(=O)N4)ccn1 (stereo partly shown) [Example 154],≤ 250,≤ 250

SMILES,IC50 [1] [nM],IC50 [2] [nM]
COc1ccc(-c2n[nH]c3cc4c(cc23)CN([C@@H]2CCCN(Cc3ccccc3)C2)C(=O)N4)cn1 [Example 272],≤ 250,≤ 250
Cc1ccc(-c2n[nH]c3cc4c(cc23)CN([C@@H]2CCCN(Cc3ccc(F)cc3F)C2)C(=O)N4)cn1 [Example 284],≤ 250,≤ 250
Cc1cc(-c2n[nH]c3cc4c(cc23)CN([C@H]2CCN(Cc3ccccc3)C2)C(=O)N4)ccn1 [Example 301],250 to 1000,≤ 250
COc1cc(-c2n[nH]c3cc4c(cc23)CN([C@@H]2CCCN(Cc3ccc(F)cc3F)C2)C(=O)N4)ccn1 [Example 271],≤ 250,≤ 250
Cc1cc(-c2n[nH]c3cc4c(cc23)CN([C@@H]2CN(C)C[C@H]2c2ccc(F)cc2)C(=O)N4)cc(C)n1 (racemic) [Example 305],≤ 250,≤ 250
COc1ccc(-c2n[nH]c3cc4c(cc23)CN([C@@H]2CCCN(Cc3ccc(F)cc3F)C2)C(=O)N4)cn1 [Example 273],≤ 250,≤ 250
COc1ncc(-c2n[nH]c3cc4[nH]c(=O)c(C5CCCN(Cc6ccccc6)C5)cc4cc23)cn1 (stereo not shown) [Example 364],≤ 250,≤ 250
Cc1cc(-c2n[nH]c3cc4c(cc23)CN([C@@H]2CN(C)C[C@H]2c2ccccc2)C(=O)N4)cc(C)n1 (racemic) [Example 248],≤ 250,≤ 250
Cc1cc(-c2n[nH]c3cc4c(cc23)CN([C@@H]2CCN(c3ccc(F)cn3)C2)C(=O)N4)ccn1 [Example 257],> 1000,250 to 1000
CC(c1ccccc1)c1cc2cc3c(-c4cccnc4)n[nH]c3cc2[nH]c1=O (stereo not shown) [Example 330],250 to 1000,≤ 250
Cn1cc(-c2n[nH]c3cc4c(cc23)CN([C@@H]2CCCN(Cc3ccc(F)cc3F)C2)C(=O)N4)cn1 [Example 281],≤ 250,≤ 250
Cc1cc(-c2n[nH]c3cc4c(cc23)CN([C@@H]2CCCN(CC(F)(F)F)C2)C(=O)N4)cc(C)n1 [Example 244],≤ 250,≤ 250
Cc1cc(-c2n[nH]c3cc4c(cc23)CN([C@@H]2CCCN(Cc3csc(C)c3)C2)C(=O)N4)ccn1 [Example 251],≤ 250,≤ 250
Cc1cc(-c2n[nH]c3cc4c(cc23)CN(Cc2cc(F)cc(F)c2)C(=O)N4)cc(C)n1 [Example 225],≤ 250,≤ 250
Cc1cc(-c2n[nH]c3cc4c(cc23)CN([C@@H]2CCCN(Cc3ccc(F)cc3)C2)C(=O)N4)ccn1 [Example 151],≤ 250,> 1000
CC(c1ccccc1)c1cc2cc3c(-c4ccnnc4)n[nH]c3cc2[nH]c1=O (stereo not shown) [Example 323],250 to 1000,≤ 250
Cc1cc(-c2n[nH]c3cc4c(cc23)CN(Cc2cccc(C(F)(F)F)c2)C(=O)N4)ccn1 [Example 240],≤ 250,≤ 250
CC(c1ccccc1)c1cc2cc3c(-c4ccc(N5CCOCC5)nc4)n[nH]c3cc2[nH]c1=O (stereo not shown) [Example 324],≤ 250,≤ 250
Cc1cc(-c2n[nH]c3cc4c(cc23)CN([C@H]2CN(Cc3ccccc3)CC(F)(F)C2)C(=O)N4)ccn1 [Example 264],≤ 250,≤ 250

# Reference: patent US10301317B2, “Inhibitors of ERK and methods of use” (Kura Oncology, Inc., priority 2013, dated 2019)
